# According to patent US8304446B2, “Compounds” (Glaxo Group Limited, priority 2009, dated 2012):
# Structures can show the parent of a compound that is named as a salt.
# System: CD4+ CCR4+ T cells
# Assay: Chemokine stimulated increases in cellular F-actin content
# Type: cell-based
# Settings: Homo sapiens, T-cell, 0.5 h; PBMC from normal volunteers; antagonist 30 min at 37° C. before agonist for 15 sec; F-actin content by flow cytometry; read-out: pA2 (converted)
# Description: Chemokine Stimulated Increases in Cellular F-Actin Content
# Blood was taken from normal volunteers who had taken no medication within the previous ten days and mixed with 1/9 of the volume of 3.8% tri-sodium citrate solution. Chemokine-induced increases in the F-actin content of CD4+ CCR4+ T cells were measured by a modification of the method of Pilette et al. (Eur. Respir. J; 23: 876-884, 2004). Peripheral blood mononuclear cells (PBMC) were isolated by dextran sedimentation followed by Percoll density gradient centrifugation. The PBMCs were incubated with FITC-conjugated anti-human CD4 and PE-conjugated anti-CCR4 antibodies or appropriate isotype controls for 15 min. The cell suspensions were then centrifuged at 400 g for 10 min and the pellets resuspended in assay buffer (phenol red-free RPMI 1640 medium containing 10 mM HEPES and 0.1% bovine serum albumin) at 10^7/mL. The resulting cell suspension was incubated with antagonist or vehicle (0.1% DMSO) for 30 min at 37° C. before stimulation with the agonist for 15 sec. The assay was terminated by addition of 3% formaldehyde. The fixed cells were washed twice with PBS (centrifuging at 1000 g for 5 min to recover the cells) and incubated at room temperature with Alexa fluor-647 phalloidin (0.075 U/mL) in the presence of lyso-phosphatidylcholine (93.75 μg/ml) for 20 min to stain F-actin. The cells were washed once more with PBS and the relative F-actin content of the cells was measured flow cytometrically. The mean fluorescence intensity of 1000 CD4^+ CCR4^+ cells per sample was determined and expressed as a fraction of the mean intensity of the CD4^+ CCR4^− cells in that sample.
row,Structure (SMILES),Kb [µM]
1,"COc1cccc2c1c(NS(=O)(=O)c1ccc(Cl)s1)nn2Cc1cccc(CNC(C)=O)c1 [Example 1, N-[(3-{[3-{[(5-Chloro-2-thienyl)sulfonyl]amino}-4-(methyloxy)-1H-indazol-1-yl]methyl}phenyl)methyl]acetamide]",≤ 0.126
2,"COc1cccc2c1c(NS(=O)(=O)c1ccc(Cl)s1)nn2Cc1cccc(CNC=O)c1 [Example 5, 5-Chloro-N-[1-({3-[(formylamino)methyl]phenyl}methyl)-4-(methyloxy)-1H-indazol-3-yl]-2-thiophenesulfonamide]",≤ 0.126
3,"COc1cccc2c1c(NS(=O)(=O)c1ccc(Cl)s1)nn2Cc1cccc(CNC(=O)[C@H]2CCCCN2)c1 [Example 9, (2R)—N-[(3-{[3-{[(5-chloro-2-thienyl)sulfonyl]amino}-4-(methyloxy)-1H-indazol-1-yl]methyl}phenyl)methyl]-2-piperidinecarboxamide trifluoroacetate salt]",≤ 0.126
4,"COc1cccc2c1c(NS(=O)(=O)c1ccc(Cl)s1)nn2Cc1cccc(CNC(=O)C(C)(C)CN)c1 [Example 11, 3-Amino-N-[(3-{[3-{[(5-chloro-2-thienyl)sulfonyl]amino}-4-(methyloxy)-1H-indazol-1-yl]methyl}phenyl)methyl]-2,2-dimethylpropanamide hydrochloride]",≤ 0.126
5,"CNCC(=O)NCc1cccc(Cn2nc(NS(=O)(=O)c3ccc(Cl)s3)c3c(OC)cccc32)c1 [Example 12, N^1-[(3-{[3-{[(5-chloro-2-thienyl)sulfonyl]amino}-4-(methyloxy)-1H-indazol-1-yl]methyl}phenyl)methyl]-N^2-methylglycinamide hydrochloride]",≤ 0.126
6,"COc1cccc2c1c(NS(=O)(=O)c1ccc(Cl)s1)nn2Cc1cccc(CNC(=O)[C@@]2(C)CCCN2)c1 [Example 13, N-[(3-{[3-{[(5-Chloro-2-thienyl)sulfonyl]amino}-4-(methyloxy)-1H-indazol-1-yl]methyl}phenyl)methyl]-2-methyl-D-prolinamide]",≤ 0.126
7,"COc1cccc2c1c(NS(=O)(=O)c1ccc(Cl)s1)nn2Cc1cccc(CNC(=O)C2(C)CCCCN2)c1 (centres unmarked) [Example 14, N-[(3-{[3-{[(5-chloro-2-thienyl)sulfonyl]amino}-4-(methyloxy)-1H-indazol-1-yl]methyl}phenyl)methyl]-2-methyl-2-piperidinecarboxamide]",≤ 0.126
8,"CNC1(C(=O)NCc2cccc(Cn3nc(NS(=O)(=O)c4ccc(Cl)s4)c4c(OC)cccc43)c2)CC1 [Example 15, N-[(3-{[3-{[(5-Chloro-2-thienyl)sulfonyl]amino}-4-(methyloxy)-1H-indazol-1-yl]methyl}phenyl)methyl]-1-(methylamino)cyclopropanecarboxamide hydrochloride]",≤ 0.126
9,"COc1cccc2c1c(NS(=O)(=O)c1ccc(Cl)s1)nn2Cc1cccc(CNC(=O)[C@@H](C)N)c1 [Example 19, N^1-[(3-{[3-{[(5-chloro-2-thienyl)sulfonyl]amino}-4-(methyloxy)-1H-indazol-1-yl]methyl}phenyl)methyl]-D-alaninamide trifluoroacetate]",≤ 0.126
10,"COc1cccc2c1c(NS(=O)(=O)c1ccc(Cl)s1)nn2Cc1cccc(CNC(=O)CN)c1 [Example 20, N^1-[(3-{[3-{[(5-chloro-2-thienyl)sulfonyl]amino}-4-(methyloxy)-1H-indazol-1-yl]methyl}phenyl)methyl]glycinamide trifluoroacetate]",≤ 0.126
11,"CNC(=O)[C@@H](N)CC(=O)NCc1cccc(Cn2nc(NS(=O)(=O)c3ccc(Cl)s3)c3c(OC)cccc32)c1 [Example 22, N^4-[(3-{[3-{[(5-chloro-2-thienyl)sulfonyl]amino}-4-(methyloxy)-1H-indazol-1-yl]methyl}phenyl)methyl]-N^1-methyl-L-aspartamide trifluoroacetate]",≤ 0.126
12,"COC(=O)[C@@H](N)CC(=O)NCc1cccc(Cn2nc(NS(=O)(=O)c3ccc(Cl)s3)c3c(OC)cccc32)c1 [Example 23, Methyl N^4-[(3-{[3-{[(5-chloro-2-thienyl)sulfonyl]amino}-4-(methyloxy)-1H-indazol-1-yl]methyl}phenyl)methyl]asparaginate trifluoroacetate]",≤ 0.126
13,"COc1cccc2c1c(NS(=O)(=O)c1ccc(Cl)s1)nn2Cc1cccc(CNC(=O)CC2CCCN2)c1 (centres unmarked) [Example 24, N-[(3-{[3-{[(5-chloro-2-thienyl)sulfonyl]amino}-4-(methyloxy)-1H-indazol-1-yl]methyl}phenyl)methyl]-2-(2-pyrrolidinyl)acetamide trifluoroacetate]",≤ 0.126
14,"COc1cccc2c1c(NS(=O)(=O)c1ccc(Cl)s1)nn2Cc1cccc(CNC(=O)CC(C)N)c1 (centres unmarked) [Example 25, 3-Amino-N-[(3-{[3-{[(5-chloro-2-thienyl)sulfonyl]amino}-4-(methyloxy)-1H-indazol-1-yl]methyl}phenyl)methyl]butanamide trifluoroacetate]",≤ 0.126
15,"CNCCC(=O)NCc1cccc(Cn2nc(NS(=O)(=O)c3ccc(Cl)s3)c3c(OC)cccc32)c1 [Example 29, N^1-[(3-{[3-{[(5-Chloro-2-thienyl)sulfonyl]amino}-4-(methyloxy)-1H-indazol-1-yl]methyl}phenyl)methyl]-N^3-methyl-β-alaninamide trifluoroacetate]",≤ 0.126
16,"COCC(=O)NCc1cccc(Cn2nc(NS(=O)(=O)c3ccc(Cl)s3)c3c(OC)cccc32)c1 [Example 30, N-[(3-{[3-{[(5-Chloro-2-thienyl)sulfonyl]amino}-4-(methyloxy)-1H-indazol-1-yl]methyl}phenyl)methyl]-2-(methyloxy)acetamide]",≤ 0.126
17,"COc1cccc2c1c(NS(=O)(=O)c1ccc(Cl)s1)nn2Cc1cccc(CNC(=O)[C@H](C)N(C)C)c1 [Example 31, N^1-[(3-{[3-{[(5-Chloro-2-thienyl)sulfonyl]amino}-4-(methyloxy)-1H-indazol-1-yl]methyl}phenyl)methyl]-N^2,N^2-dimethylalaninamide trifluoroacetate]",≤ 0.126
18,"COc1cccc2c1c(NS(=O)(=O)c1ccc(Cl)s1)nn2Cc1cccc(CNC(=O)CO)c1 [Example 32, N-[(3-{[3-{[(5-Chloro-2-thienyl)sulfonyl]amino}-4-(methyloxy)-1H-indazol-1-yl]methyl}phenyl)methyl]-2-hydroxyacetamide]",≤ 0.126
19,"COc1cccc2c1c(NS(=O)(=O)c1ccc(Cl)s1)nn2Cc1cccc(CNC(=O)C(C)(C)N(C)C)c1 [Example 34, N^1-[(3-{[3-{[(5-Chloro-2-thienyl)sulfonyl]amino}-4-(methyloxy)-1H-indazol-1-yl]methyl}phenyl)methyl]-N^2,N^2,2-trimethylalaninamide trifluoroacetate]",≤ 0.126
20,"COCCN(C)CC(=O)NCc1cccc(Cn2nc(NS(=O)(=O)c3ccc(Cl)s3)c3c(OC)cccc32)c1 [Example 36, N^1-[(3-{[3-{[(5-Chloro-2-thienyl)sulfonyl]amino}-4-(methyloxy)-1H-indazol-1-yl]methyl}phenyl)methyl]-N^2-methyl-N^2-[2-(methyloxy)ethyl]glycinamide trifluoroacetate]",≤ 0.126
21,"COc1cccc2c1c(NS(=O)(=O)c1ccc(Cl)s1)nn2Cc1cccc(CNC(=O)c2cnco2)c1 [Example 38, N-[(3-{[3-{[(5-Chloro-2-thienyl)sulfonyl]amino}-4-(methyloxy)-1H-indazol-1-yl]methyl}phenyl)methyl]-1,3-oxazole-5-carboxamide]",≤ 0.126
22,"COc1cccc2c1c(NS(=O)(=O)c1ccc(Cl)s1)nn2Cc1cccc(CNC(=O)[C@@H]2CCCN2C)c1 [Example 39, N-[(3-{[3-{[(5-Chloro-2-thienyl)sulfonyl]amino}-4-(methyloxy)-1H-indazol-1-yl]methyl}phenyl)methyl]-methyl-L-prolinamide trifluoroacetate]",≤ 0.126
23,"COc1cccc2c1c(NS(=O)(=O)c1ccc(Cl)s1)nn2Cc1cccc(CNC(=O)[C@H]2CCCN2C)c1 [Example 40, N-[(3-{[3-{[(5-Chloro-2-thienyl)sulfonyl]amino}-4-(methyloxy)-1H-indazol-1-yl]methyl}phenyl)methyl]-1-methyl-D-prolinamide trifluoroacetate]",≤ 0.126
24,"COc1cccc2c1c(NS(=O)(=O)c1ccc(Cl)s1)nn2Cc1cccc(CNC(=O)c2ccoc2)c1 [Example 41, N-[(3-{[3-{[(5-Chloro-2-thienyl)sulfonyl]amino}-4-(methyloxy)-1H-indazol-1-yl]methyl}phenyl)methyl]-3-furancarboxamide]",≤ 0.126
25,"COc1cccc2c1c(NS(=O)(=O)c1ccc(Cl)s1)nn2Cc1cccc(CNC(=O)C2CCCCN2C)c1 (centres unmarked) [Example 42, N-[(3-{[3-{[(5-chloro-2-thienyl)sulfonyl]amino}-4-(methyloxy)-1H-indazol-1-yl]methyl}phenyl)methyl]-1-methyl-2-piperidinecarboxamide trifluoroacetate]",≤ 0.126
26,"COc1cccc2c1c(NS(=O)(=O)c1ccc(Cl)s1)nn2Cc1cccc(CNC(=O)[C@H](N)CC(C)C)c1 [Example 45, N^1-[(3-{[3-{[(5-Chloro-2-thienyl)sulfonyl]amino}-4-(methyloxy)-1H-indazol-1-yl]methyl}phenyl)methyl]-D-leucinamide]",≤ 0.126
